# Reference: patent publication US10941145B2, “Toll-like receptor 7 (TLR7) agonists having a benzotriazole moiety, conjugates thereof, and methods and uses therefor” (BRISTOL-MYERS SQUIBB COMPANY, priority 2017, dated 2021)
# How the values were obtained:
# [1] = molecular target: T1, human TLR7 (Homo sapiens, UniProt Q9NYK1); test: HEK-Blue TLR7 reporter assay (TLR7 agonism); format: cell-based; conditions: HEK-Blue TLR7 cells, human TLR7-SEAP reporter, 18 h treatment
# T1 construct: host or cells: HEK-Blue TLR7 cells (engineered human embryonic kidney cells)
# T1 sequence (Q9NYK1 27-1049): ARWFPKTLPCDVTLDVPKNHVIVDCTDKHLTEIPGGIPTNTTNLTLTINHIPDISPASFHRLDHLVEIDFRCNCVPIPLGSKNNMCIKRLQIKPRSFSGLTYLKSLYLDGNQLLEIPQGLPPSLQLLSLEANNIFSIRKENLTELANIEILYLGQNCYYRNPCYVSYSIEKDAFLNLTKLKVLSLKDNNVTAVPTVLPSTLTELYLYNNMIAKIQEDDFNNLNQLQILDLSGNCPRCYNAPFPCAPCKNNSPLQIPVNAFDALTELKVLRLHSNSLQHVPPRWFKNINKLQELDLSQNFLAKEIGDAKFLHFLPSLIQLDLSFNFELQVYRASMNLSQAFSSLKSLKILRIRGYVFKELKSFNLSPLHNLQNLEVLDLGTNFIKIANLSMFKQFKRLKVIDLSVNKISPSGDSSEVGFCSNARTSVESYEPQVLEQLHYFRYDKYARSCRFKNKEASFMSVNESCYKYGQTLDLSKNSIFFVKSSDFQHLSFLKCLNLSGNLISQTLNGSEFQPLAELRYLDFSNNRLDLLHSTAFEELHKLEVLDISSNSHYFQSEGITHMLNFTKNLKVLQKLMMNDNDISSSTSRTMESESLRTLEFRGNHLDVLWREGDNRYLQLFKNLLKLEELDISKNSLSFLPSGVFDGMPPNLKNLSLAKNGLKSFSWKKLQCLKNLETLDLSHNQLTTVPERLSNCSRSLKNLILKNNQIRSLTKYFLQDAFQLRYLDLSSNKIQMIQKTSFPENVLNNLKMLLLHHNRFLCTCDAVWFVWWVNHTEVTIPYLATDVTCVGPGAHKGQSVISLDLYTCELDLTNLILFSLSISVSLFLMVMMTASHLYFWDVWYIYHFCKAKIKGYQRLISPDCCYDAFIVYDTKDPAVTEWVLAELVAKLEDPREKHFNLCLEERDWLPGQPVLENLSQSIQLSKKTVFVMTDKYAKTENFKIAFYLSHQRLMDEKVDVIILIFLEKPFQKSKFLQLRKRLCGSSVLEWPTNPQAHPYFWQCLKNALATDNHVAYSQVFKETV
# Description: This example describes a method for assaying TLR7 agonist activity of the compounds disclosed in this specification.
# HEK-Blue™ TLR7 cells were added to each well of a 384-well tissue-culture plate (15,000 cells per well) and incubated 16-18 h at 37° C., 5% CO2. Compounds (100 nl) were dispensed into wells containing the HEK-Blue™ TLR cells and the treated cells were incubated at 37° C., 5% CO2. After 18 h treatment ten microliters of freshly-prepared Quanti-Blue™ reagent (Invivogen) was added to each well, incubated for 30 min (37° C., 5% CO2) and SEAP levels measured using an Envision plate reader (OD=620 nm).
# [2] = test system: interleukin 6 (IL-6); test: Interleukin 6 (IL-6) induction in human whole blood; format: cell-based; conditions: 37° C., 20 h, AlphaLISA
# Description: This example describes a method for assaying interleukin 6 induction by compounds disclosed in this specification.
# Compounds diluted in DMSO were transferred to individual wells of a Matrix Technologies clear, V-bottom 384-well plate using ECHO acoustic liquid handling technology (25 nL per well). Human whole-blood samples (25 uL) were added to each well using a CyBio FeliX liquid handling instrument. The plate was shaken on a plate shaker for three min before the reaction mixtures at 37° C. for 20 h. Basel RPMI 1640 medium (supplemented with L-glutamine) was then added to each well (25 uL per well) prior to liberating plasma from each sample by centrifugation (450×g, 5 min, ambient temperature). Treated plasma samples (3 uL) were subsequently transferred to individual wells of a white, shallow, 384-well ProxiPlate (Perkin Elmer) using the FeliX liquid handling instrument and their interleukin 6 levels were measured using AlphaLISA technology as described by the manufacturer, PerkinElmer. Data analyses software was used to determine compound EC50 values where the baseline was established using average DMSO values and 100% induction established using reference compound values at the highest concentration tested. EC50's can be determined with software such as Graphpad Prism™.
# [3] = test system: IFN-α; conditions: fold less potent than the corresponding purine-8-one compound; cited from earlier work
SMILES,EC50 [1],EC50 [2],"potency less than that of the corresponding purine-8-one compound, as measured by IFN-α induction [3]"
CCCCOc1nc(N)c2nc(O)n(Cc3ccc4c(c3)nnn4CCNCc3ccncc3)c2n1 [Ia-10],7.2 nM,18.2 nM,–
CCCCNCCn1nnc2cc(Cn3c(O)nc4c(N)nc(OCCCC)nc43)ccc21 [Ia-03],2.3 nM,16.8 nM,–
CCCCOc1nc(N)c2nc(O)n(Cc3ccc4c(c3)nnn4CCNC3CN(C(=O)OC(C)(C)C)C3)c2n1 [Ia-08],113 nM,–,–
CCCCOc1nc(N)c2nc(O)n(Cc3ccc4c(c3)nnn4CCNC3CC3)c2n1 [Ia-04],4 nM,15.3 nM,–
CCCCOc1nc(N)c2nc(O)n(Cc3ccc4c(c3)nnn4CCNCC3COC3)c2n1 [Ia-07],2.4 nM,19.7 nM,–
CCCCOc1nc(N)c2nc(O)n(Cc3ccc4c(c3)nnn4CCCl)c2n1 [Ia-02],26 nM,53 nM,–
CCCCOc1nc(N)c2nc(O)n(Cc3ccc4c(c3)nnn4CCO)c2n1 [Ia-01],5.4 nM,37 nM,–
CCCCOc1nc(N)c2nc(O)n(Cc3ccc4c(c3)nnn4CCNC3CCC3)c2n1 [Ia-05],0.9 nM,22.5 nM,–
CCCCOc1nc(N)c2nc(O)n(Cc3ccc4c(c3)nnn4CCNC3COC3)c2n1 [Ia-06],11 nM,56.2 nM,–
"CCCCOc1nc(N)c2c(n1)N(Cc1cccc(CN3CCCC3)c1)CC(=O)N2 [Vesatolimod, vesatolimod]",–,–,100 ×
CCCCOc1nc(N)c2nc(O)n(Cc3ccc4c(c3)nnn4CCNCc3ccccc3)c2n1 [Ia-09],24 nM,44 nM,–
